# Measured values taken from ChEMBL document CHEMBL3885881, “DrugMatrix”.
# Organism: Rattus norvegicus
# Assay: DrugMatrix - Regimen: Daily Repeat
# Type: toxicity, organism-based, Sprague-Dawley
# Parameters: regimen Daily Repeat, gender Male, age 6-8 weeks
# Details: in vivo, po, route oral GAVAGE, vehicle 100 % WATER; for ABSOLUTE BASOPHIL / ABSOLUTE EOSINOPHIL / ABSOLUTE LYMPHOCYTE / ABSOLUTE MONOCYTE / ABSOLUTE SEGMENTED NEUTROPHIL / BASOPHIL / EOSINOPHIL / ERYTHROCYTE COUNT / HEMATOCRIT / HEMOGLOBIN / LEUKOCYTE COUNT / LYMPHOCYTE / MEAN CORPUSCULAR HEMOGLOBIN / MEAN CORPUSCULAR HEMOGLOBIN CONCENTRATION / MEAN CORPUSCULAR VOLUME / MONOCYTE / NEUTROPHIL / NUCLEATED RED BLOOD CELLS / PLATELET COUNT: tissue Blood; for ALANINE AMINOTRANSFERASE / ALBUMIN / ALKALINE PHOSPHATASE / ASPARTATE AMINOTRANSFERASE / BLOOD UREA NITROGEN / CARBON DIOXIDE / CHLORIDE / CHOLESTEROL / CREATINE PHOSPHOKINASE / CREATININE / GLUCOSE / LACTATE DEHYDROGENASE / LIPASE / PHOSPHORUS / SODIUM / TOTAL BILIRUBIN / TOTAL PROTEIN / URIC ACID: tissue Plasma
# [1] = 0 mg/kg, 72 h, dose level Control, time 3 day
# [2] = 0 mg/kg, 120 h, dose level Control, time 5 day
# [3] = 100 mg/kg, 72 h, dose level Low, time 3 day
smiles,measurement,setting,value
CCN(CC)C(=S)SSC(=S)N(CC)CC,ABSOLUTE BASOPHIL,[1],0 CELLS/uL
same,ABSOLUTE EOSINOPHIL,[1],58.83 CELLS/uL
same,ABSOLUTE LYMPHOCYTE,[1],11823.5 CELLS/uL
same,ABSOLUTE MONOCYTE,[1],169 CELLS/uL
same,ABSOLUTE SEGMENTED NEUTROPHIL,[1],815.33 CELLS/uL
same,BASOPHIL,[1],0%
same,EOSINOPHIL,[1],0.5%
same,ERYTHROCYTE COUNT,[1],5.52 x10E6/uL
same,HEMATOCRIT,[1],35.77%
same,HEMOGLOBIN,[1],14.28 G/DL
same,LEUKOCYTE COUNT,[1],12.87 x10E3/uL
same,LYMPHOCYTE,[1],91.67%
same,MEAN CORPUSCULAR HEMOGLOBIN,[1],25.92 pg
same,MEAN CORPUSCULAR HEMOGLOBIN CONCENTRATION,[1],39.95 G/DL
same,MEAN CORPUSCULAR VOLUME,[1],64.85 fL
same,MONOCYTE,[1],1.33%
same,NEUTROPHIL,[1],6.5%
same,NUCLEATED RED BLOOD CELLS,[1],0 /100WBC
same,PLATELET COUNT,[1],1246.17 x10E3/uL
same,ALANINE AMINOTRANSFERASE,[1],66 u/L
same,ALBUMIN,[1],4.25 G/DL
same,ALKALINE PHOSPHATASE,[1],416 u/L
same,ASPARTATE AMINOTRANSFERASE,[1],106.17 u/L
same,BLOOD UREA NITROGEN,[1],12.67 mg/dL
same,CARBON DIOXIDE,[1],31.83 mmol/L
same,CHLORIDE,[1],102.5 MEQ/L
same,CHOLESTEROL,[1],69 mg/dL
same,CREATINE PHOSPHOKINASE,[1],601.83 u/L
same,CREATININE,[1],0.18 mg/dL
same,GLUCOSE,[1],154.5 mg/dL
same,LACTATE DEHYDROGENASE,[1],301.83 u/L
same,LIPASE,[1],11.17 u/L
same,PHOSPHORUS,[1],12.08 mg/dL
same,SODIUM,[1],145.2 MEQ/L
same,TOTAL BILIRUBIN,[1],0.17 mg/dL
same,TOTAL PROTEIN,[1],6.1 G/DL
same,URIC ACID,[1],1.57 mg/dL
same,ABSOLUTE BASOPHIL,[2],0 CELLS/uL
same,ABSOLUTE EOSINOPHIL,[2],19.33 CELLS/uL
same,ABSOLUTE LYMPHOCYTE,[2],12577.83 CELLS/uL
same,ABSOLUTE MONOCYTE,[2],106.33 CELLS/uL
same,ABSOLUTE SEGMENTED NEUTROPHIL,[2],896.5 CELLS/uL
same,BASOPHIL,[2],0%
same,EOSINOPHIL,[2],0.17%
same,ERYTHROCYTE COUNT,[2],5.84 x10E6/uL
same,HEMATOCRIT,[2],36.88%
same,HEMOGLOBIN,[2],14.48 G/DL
same,LEUKOCYTE COUNT,[2],13.6 x10E3/uL
same,LYMPHOCYTE,[2],92.17%
same,MEAN CORPUSCULAR HEMOGLOBIN,[2],24.85 pg
same,MEAN CORPUSCULAR HEMOGLOBIN CONCENTRATION,[2],39.3 G/DL
same,MEAN CORPUSCULAR VOLUME,[2],63.23 fL
same,MONOCYTE,[2],0.83%
same,NEUTROPHIL,[2],6.83%
same,NUCLEATED RED BLOOD CELLS,[2],0 /100WBC
same,PLATELET COUNT,[2],1223.5 x10E3/uL
same,ALANINE AMINOTRANSFERASE,[2],55.33 u/L
same,ALBUMIN,[2],4.08 G/DL
same,ALKALINE PHOSPHATASE,[2],355.5 u/L
same,ASPARTATE AMINOTRANSFERASE,[2],87.67 u/L
same,BLOOD UREA NITROGEN,[2],15.33 mg/dL
same,CARBON DIOXIDE,[2],33.83 mmol/L
same,CHLORIDE,[2],99.67 MEQ/L
same,CHOLESTEROL,[2],72.17 mg/dL
same,CREATINE PHOSPHOKINASE,[2],268.33 u/L
same,CREATININE,[2],0.15 mg/dL
same,GLUCOSE,[2],152.5 mg/dL
same,LACTATE DEHYDROGENASE,[2],212.67 u/L
same,LIPASE,[2],10.83 u/L
same,PHOSPHORUS,[2],11.65 mg/dL
same,SODIUM,[2],142.43 MEQ/L
same,TOTAL BILIRUBIN,[2],0.23 mg/dL
same,TOTAL PROTEIN,[2],6.07 G/DL
same,URIC ACID,[2],1.7 mg/dL
same,ABSOLUTE BASOPHIL,[3],0 CELLS/uL
same,ABSOLUTE EOSINOPHIL,[3],157.33 CELLS/uL
same,ABSOLUTE LYMPHOCYTE,[3],16865.67 CELLS/uL
same,ABSOLUTE MONOCYTE,[3],329 CELLS/uL
same,ABSOLUTE SEGMENTED NEUTROPHIL,[3],2381.33 CELLS/uL
same,BASOPHIL,[3],0%
same,EOSINOPHIL,[3],0.67%
same,ERYTHROCYTE COUNT,[3],5.56 x10E6/uL
same,HEMATOCRIT,[3],35.37%
same,HEMOGLOBIN,[3],14.23 G/DL
same,LEUKOCYTE COUNT,[3],19.73 x10E3/uL
same,LYMPHOCYTE,[3],85.67%
same,MEAN CORPUSCULAR HEMOGLOBIN,[3],25.63 pg
same,MEAN CORPUSCULAR HEMOGLOBIN CONCENTRATION,[3],40.27 G/DL
same,MEAN CORPUSCULAR VOLUME,[3],63.63 fL
same,MONOCYTE,[3],1.67%
same,NEUTROPHIL,[3],12%
same,NUCLEATED RED BLOOD CELLS,[3],0 /100WBC
same,PLATELET COUNT,[3],1201.33 x10E3/uL
same,ALANINE AMINOTRANSFERASE,[3],56 u/L
same,ALBUMIN,[3],3.87 G/DL
same,ALKALINE PHOSPHATASE,[3],264.33 u/L
same,ASPARTATE AMINOTRANSFERASE,[3],73.33 u/L
same,BLOOD UREA NITROGEN,[3],11.67 mg/dL
same,CARBON DIOXIDE,[3],31.67 mmol/L
same,CHLORIDE,[3],102.33 MEQ/L
same,CHOLESTEROL,[3],84.33 mg/dL
same,CREATINE PHOSPHOKINASE,[3],223.33 u/L
same,CREATININE,[3],0.28 mg/dL
same,GLUCOSE,[3],140.67 mg/dL
same,LACTATE DEHYDROGENASE,[3],124 u/L
same,LIPASE,[3],14.33 u/L
same,PHOSPHORUS,[3],11.63 mg/dL
same,SODIUM,[3],144.57 MEQ/L
same,TOTAL BILIRUBIN,[3],0.1 mg/dL
same,TOTAL PROTEIN,[3],5.7 G/DL
same,URIC ACID,[3],1.23 mg/dL
